How the values were obtained:
PC3 xenografts = assay: In vivo xenograft study of anti-tumor activity; conditions: for tumor growth relative to control: i.v. 1× per week via jugular vein catheter, 5FU 100 mg/kg, first 44 days, FdUMP[10] effect from day 18
From the text: FIG. 7. Plot of tumor size versus time for PC3 xenografts in nude mice. Data are shown for four treatment groups (n=8 in each group): 1) control 1; 2) FdUMP[10]; 3) control 2; 4) 5-FU. The FdUMP[10] and 5FU studies were done consecutively (rather than concurrently) so that two control groups were required.
The principal strategy that will be used to render the dimeric aptamer complexes we have developed selectively cytotoxic towards targeted cancer cells is to include cytotoxic nucleotides, such as FdU, in the structure. While other modalities may also be included to render these modified aptamers cytotoxic to cancer cells (e.g. siRNA, toxins), there is considerable merit to the concept that dimeric aptamer complexes are the best method for delivery of FdU and other cytotoxic nucleotide analogs in the future. In principle, delivery of cytotoxic nucleotide analogs in aptamers increases the selectivity and potency of these drugs while minimizing systemic toxicities. In this regard, it is important to consider the advantages obtained by inclusion of FdU in single-stranded DNA (e.g. FdUMP[10]) relative to delivery as the nucleobase (5FU). We have shown that not only does delivery of fluoropyrimidine (FP) as FdUMP[10] increase efficacy and decrease toxicity, it also changes the spectrum of malignancies that are responsive to FP treatment. […] PSMA, the target for the dimeric aptamer complexes being developed by us, is frequently expressed in advanced prostate cancer. PSMA is also frequently expressed in tumor neovasculature. As FPs are widely used for treatment of solid tumors, the dimeric aptamer complexes developed in these studies should provide an improved mechanism for tumor-specific delivery of FPs.
We recently completed an in vivo xenograft study evaluating the anti-tumor activity of FdUMP[10] and 5FU towards PC3 xenografts (FIG. 8). […] FdUMP[10] (150 mg/kg) was injected i.v. 1× per week via jugular vein catheter. 5FU (100 mg/kg) was also injected 1× per week by the same route. […] FdUMP[10] was well-tolerated at the administered dose. A mixed effects model was fit to examine whether there were differences between groups over the first 44 days after administration of FdUMP[10] or 5FU. In this model, individual animals were considered as random effects and the group and day variables were considered as fixed effects. […] We expect that with dimeric aptamer complexes including FdU, we will further increase the selectivity for malignant cells and further reduce systemic toxicities. Thus, dimeric aptamer complexes may ultimately become the preferred method for administering fluoropyrimidine chemotherapy in the era of molecularly targeted cancer therapeutics.

PC3 cells [1] = assay: Fluorescence microscopy of fluorescently-labeled aptamer on live cells (PSMA− negative control); assay type: cell-based; conditions: 2 h, room temperature
Method: (§1) FIG. 1. Fluorescence microscopy images of the PSMA01 DNA aptamer binding to (A) C4-2 cells; (B) LNCaP cells; (C)PC3 cells. (D) Binding of the A10-3 RNA aptamer to C4-2 cells. Live cells were incubated in PBS with 1×10^−6 M Rhodamine-conjugated aptamer for 2 h at room temperature. Cells were fixed with 3.7% formaldehyde for 2 min prior to visualization using an Olympus inverted microscope.
(§2) In these studies, live (non-fixed cells) cells were incubated in the presence of fluorescently-labeled aptamer for 2 h at room temperature. In these studies, C4-2 and LNCaP cells were used to evaluate binding to PSMA+ cells while PC3 cells were used as a PSMA− negative control.

LNCaP cells = assay: Fluorescence microscopy of fluorescently-labeled aptamer on live cells; assay type: cell-based; conditions: PSMA+ cells, 2 h, room temperature
Method: as §1, §2

C4-2 cells [2] = assay: Fluorescence microscopy of fluorescently-labeled aptamer, dimeric complex or mAb on live cells; assay type: cell-based
Method: as §1
FIG. 3. Fluorescence microscopy images of (A) a monomeric aptamer conjugate of PSMA01 with a dT16 tail; (B) a dimeric aptamer complex consisting of 1:1 ratio of monomeric PSMA01 conjugates with dA16 and dT16 tails; (C) the J591 mAb. All images were obtained using live C4-2 cells. For (A) and (B) cells were prepared as described in FIG. 4. […]
We have has formed an affinity matrix using recombinant PSMA expressed from baculovirus. […] Protein purity was determined by gel electrophoresis and the identity of the protein was confirmed by Western blotting and mass spectrometry. […] The ssDNA product was analyzed by gel electrophoresis and quantified by UV absorption. […] DNA sequences were determined from individual clones at the core DNA sequencing facility of the CCCWFU. […] These sequences were also shown using fluorescence microscopy to bind selectively to PSMA-expressing prostate cancer cells (LNCaP, C4-2) relative to PC3 cells. […]

C4-2 cells [3] = assay: Flow cytometry of binding of fluorescently labeled aptamers and dimeric aptamer complexes; assay type: cell-based; conditions: FIG. 6; Quasar 570 / Quasar 670 fluorescence
Method: FIG. 6. Flow cytometry evaluation of the binding of fluorescently labeled aptamers and dimeric aptamer complexes with and without flexible linkers to C4-2 cells. Aptamer labeling with Quasar 570 and Quasar 670 was done as described in FIG. 8.
The relative binding of the PSMA01 DNA aptamer in monomeric form as well as in dimeric form with and without flexible linkers was also evaluated towards C4-2 cells using flow cytometry. Cells were treated in the same manner as described for the confocal microscopy experiments and were detached using an enzyme-free cell-dissociation buffer (Invitrogen). Cells were analyzed using a BD FACSCanto flow cytometry system and the data were analyzed using BD FACSDiva software (BD Biosciences, San Jose, Calif.).

PC3 cells [4] = assay: Relative cytotoxicity of activated FPs in PC3 versus C4-2 cells; assay type: cell-based; conditions: PC3 mutant p53, C4-2 wtp53; ongoing studies

| Compound | tumor growth relative to control (PC3 xenografts; FdUMP[10] 150 mg/kg) | tolerability / body weight at administered dose (PC3 xenografts; mouse, in vivo) | binding to PC3 cells (PC3 cells [1]) | binding to LNCaP cells (LNCaP cells) | internalization into PSMA+ cells (C4-2 cells [2]; C4-2 and LNCaP cells, incubation at room temperature or 37° C.) | binding to C4-2 cells (C4-2 cells [2]; PSMA+ cells, live cells, 1×10^−6 M Rhodamine-conjugated aptamer, 2 h, room temperature) | mean fluorescence intensity (cell binding) (C4-2 cells [3]) | relative sensitivity of PC3 versus C4-2 cells to activated FPs (PC3 cells [4]) | tolerability / body weight at administered dose (PC3 xenografts; i.v. 1× per week, FdUMP[10] 150 mg/kg, 5FU 100 mg/kg (maximum tolerated dose)) |
| --- | --- | --- | --- | --- | --- | --- | --- | --- | --- |
| O=c1[nH]cc(F)c(=O)[nH]1 [5FU, 5-fluorouracil] | did not reduce tumor growth rates relative to control | lost weight compared to the controls |  |  |  |  |  |  |  |
| PSMA01: DNA aptamer to PSMA, 5′-GCGTTTTCGCTTTTGCGTTTTGGGTCATCTGCTTACGATAGCAATCGT (SEQ ID NO: 1) (DNA, backbone and methylation of C not given here; further chemistry not fully specified) |  |  | no binding | selective binding | Neither our PSMA-01 DNA aptamer nor the A10-3 aptamer were internalized into PSMA+ cells to any significant extent | selective binding | right-shifted relative to background |  |  |
| FdUMP[10] | significantly reduced tumor growth relative to control |  |  |  |  |  |  | PC3 cells are more sensitive | well-tolerated |

Source: patent publication US9284559B2, “Multivalent aptamer complexes” (Wake Forest University Health Sciences, priority 2009, dated 2016)
